According to article PMC9728238, “Heterologous Expression of Recombinant Transglutaminase in Bacillus subtilis SCK6 with Optimized Signal Peptide and Codon, and Its Impact on Gelatin Properties” (Journal of Microbiology and Biotechnology, 2020):
Where a SMILES comes first, the peptide text is derived from it. The star is where a group is joined. Cbz = O=C(OCc1ccccc1)*

Target: T1, MTG (recombinant microbial transglutaminase, TGase) (Streptomyces sp., UniProt A0A6H0XHW2)
T1 construct: pro-mature gene (1,149 bp) without native signal peptide, codon-optimized, behind B. subtilis YncM signal peptide; secreted by Bacillus subtilis SCK6; purified mature enzyme, 38 kDa; no tag told
T1 sequence (A0A6H0XHW2 80-410): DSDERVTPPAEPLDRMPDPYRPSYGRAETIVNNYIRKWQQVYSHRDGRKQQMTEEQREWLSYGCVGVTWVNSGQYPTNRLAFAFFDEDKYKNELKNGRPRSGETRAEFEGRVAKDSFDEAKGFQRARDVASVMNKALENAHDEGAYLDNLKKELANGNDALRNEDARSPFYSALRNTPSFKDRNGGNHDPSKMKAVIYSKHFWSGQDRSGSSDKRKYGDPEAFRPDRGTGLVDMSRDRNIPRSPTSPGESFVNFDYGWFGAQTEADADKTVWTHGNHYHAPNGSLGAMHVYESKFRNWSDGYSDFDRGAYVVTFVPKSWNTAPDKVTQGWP
Assay: hydroxamate assay ([…] nm), Lineweaver-Burk plot
Assay type: biochemical
Settings: CBZ-Gln-Gly 5 to 30 mmol/l; pH 6.0; 37 °C; co-substrate hydroxylamine 100 mM, glutathione 10 mM; unit as printed (presumably μmol/ml)

NC(=O)CC[C@H](NC(=O)OCc1ccccc1)C(=O)NCC(=O)O [CBZ-Gln-Gly] (Cbz-Gln-Gly-OH)
Km: 16.93 μM/ml
